Experimental data: patent US20070148193A1, “Lutein concentrate” (AQUANOVA GERMAN SOLUBILISATE TECHNOLOGIES (AGT) GM, priority 2003, published 2007)

Assays:
[1] = test system: LDL (low-density lipoprotein); experiment: oxidation resistance of LDL (study by Milde and Elstner); type: biochemical; conditions: lutein as a powder or dissolved in ethanol vs. solubilizate
Text: A study by J. Milde and E. F. Elstner (Technical University of Munich) has shown that lutein has no effect on the oxidation resistance of LDL (low-density lipoprotein) as a powder or dissolved in ethanol. […] The micellated lutein from the solubilizate is enriched in the LDL by a factor of 9 more (10 mole lutein/mole LDL).

[2] = cited from earlier work

Compound	effect on the oxidation resistance of LDL [1]	solubility in water (background statement) [2]
CC1=C[C@H](O)CC(C)(C)[C@H]1/C=C/C(C)=C/C=C/C(C)=C/C=C/C=C(C)/C=C/C=C(C)/C=C/C1=C(C)C[C@@H](O)CC1(C)C [lutein]	no effect	practically insoluble in water
lutein ester		practically insoluble in water
